Data published in ChEMBL document CHEMBL4823311, “Optimization of Naphthyridones into Selective TATA-Binding Protein Associated Factor 1 (TAF1) Bromodomain Inhibitors” (ACS Med Chem Lett, 2021).

Tests used:
[1] = target: T1, Bromodomain-containing protein 4 (Homo sapiens, UniProt O60885); test: Inhibition of human partial length BRD4 BD1 (N44 to E168 residues) expressed in bacterial expression system by BROMOscan assay
[2] = target: T1, Bromodomain-containing protein 4; test: Inhibition of BRD4 BD2 (unknown origin) measured by TR-FRET assay
[3] = target: T1, Bromodomain-containing protein 4; test: Inhibition of human partial length BRD4 BD2 (K333 to E460 residues) expressed in bacterial expression system by BROMOscan assay
[4] = target: T2, Transcription initiation factor TFIID subunit 1 (Homo sapiens, UniProt P21675); test: Displacement of Halo-tagged histone H4 from NanoLuc-tagged TAF1 bromodomain 2 (unknown origin) expressed in HEK293 cells measured after 4 to 6 hrs by NanoBRET assay; format: cell-based
T2 sequence (P21675 whole entry): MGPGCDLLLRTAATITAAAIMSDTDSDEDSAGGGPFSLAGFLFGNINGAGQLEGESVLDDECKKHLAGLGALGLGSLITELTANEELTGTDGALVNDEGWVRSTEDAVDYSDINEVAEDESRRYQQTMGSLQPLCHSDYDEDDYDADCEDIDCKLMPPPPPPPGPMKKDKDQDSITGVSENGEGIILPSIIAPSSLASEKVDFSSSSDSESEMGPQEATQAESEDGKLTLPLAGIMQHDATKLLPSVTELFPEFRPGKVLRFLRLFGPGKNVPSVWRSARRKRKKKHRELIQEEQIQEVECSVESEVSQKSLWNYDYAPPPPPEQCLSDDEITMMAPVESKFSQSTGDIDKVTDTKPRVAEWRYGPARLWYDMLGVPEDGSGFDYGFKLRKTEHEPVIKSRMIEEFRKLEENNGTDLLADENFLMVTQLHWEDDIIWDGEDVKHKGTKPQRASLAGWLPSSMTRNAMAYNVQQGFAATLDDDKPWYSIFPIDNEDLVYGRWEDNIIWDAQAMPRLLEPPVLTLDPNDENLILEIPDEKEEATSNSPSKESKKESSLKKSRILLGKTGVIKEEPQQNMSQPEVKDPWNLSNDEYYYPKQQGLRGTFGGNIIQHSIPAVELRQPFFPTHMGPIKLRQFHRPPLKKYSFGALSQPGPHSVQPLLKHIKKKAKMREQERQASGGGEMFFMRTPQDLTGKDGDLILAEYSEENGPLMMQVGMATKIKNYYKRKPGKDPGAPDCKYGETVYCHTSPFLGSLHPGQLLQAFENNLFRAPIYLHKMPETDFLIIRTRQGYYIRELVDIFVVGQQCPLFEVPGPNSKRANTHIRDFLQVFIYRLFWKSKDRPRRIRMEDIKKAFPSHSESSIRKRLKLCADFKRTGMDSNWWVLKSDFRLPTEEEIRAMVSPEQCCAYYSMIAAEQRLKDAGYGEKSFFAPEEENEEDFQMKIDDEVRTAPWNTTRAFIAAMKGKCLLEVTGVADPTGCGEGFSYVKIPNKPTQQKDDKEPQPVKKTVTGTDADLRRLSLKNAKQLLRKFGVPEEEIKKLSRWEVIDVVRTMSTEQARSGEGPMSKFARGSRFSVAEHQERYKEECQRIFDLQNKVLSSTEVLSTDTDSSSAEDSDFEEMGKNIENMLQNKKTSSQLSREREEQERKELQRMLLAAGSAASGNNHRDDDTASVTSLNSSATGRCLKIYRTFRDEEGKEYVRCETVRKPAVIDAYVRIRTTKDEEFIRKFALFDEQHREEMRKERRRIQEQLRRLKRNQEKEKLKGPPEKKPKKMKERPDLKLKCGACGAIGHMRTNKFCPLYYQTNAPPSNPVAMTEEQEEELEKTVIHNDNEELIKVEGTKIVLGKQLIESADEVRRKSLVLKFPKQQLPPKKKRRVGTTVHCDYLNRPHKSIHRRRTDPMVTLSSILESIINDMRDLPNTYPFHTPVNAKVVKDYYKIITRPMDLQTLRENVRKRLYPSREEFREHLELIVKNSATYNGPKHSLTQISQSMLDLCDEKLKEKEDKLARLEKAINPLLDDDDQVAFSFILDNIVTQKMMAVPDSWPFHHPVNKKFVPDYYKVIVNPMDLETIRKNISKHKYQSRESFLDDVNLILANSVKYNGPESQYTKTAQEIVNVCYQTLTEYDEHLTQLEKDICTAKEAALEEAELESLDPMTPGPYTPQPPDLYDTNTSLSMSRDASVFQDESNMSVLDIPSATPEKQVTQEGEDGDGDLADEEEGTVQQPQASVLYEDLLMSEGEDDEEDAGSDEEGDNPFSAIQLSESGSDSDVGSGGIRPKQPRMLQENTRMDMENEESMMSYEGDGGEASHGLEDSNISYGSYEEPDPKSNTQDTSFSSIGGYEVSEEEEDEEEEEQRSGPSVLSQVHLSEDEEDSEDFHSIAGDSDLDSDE

[5] = target: T2, Transcription initiation factor TFIID subunit 1; test: Inhibition of TAF1 bromodomain 2 (unknown origin) by TR-FRET assay
[6] = target: T3, ATPase family AAA domain-containing protein 2 (Homo sapiens) (UniProt Q6PL18); test: Inhibition of human partial length ATAD2 (Q981 to R1108 residues) expressed in bacterial expression system at 10 uM measured by BROMOscan assay
T3 sequence (whole entry): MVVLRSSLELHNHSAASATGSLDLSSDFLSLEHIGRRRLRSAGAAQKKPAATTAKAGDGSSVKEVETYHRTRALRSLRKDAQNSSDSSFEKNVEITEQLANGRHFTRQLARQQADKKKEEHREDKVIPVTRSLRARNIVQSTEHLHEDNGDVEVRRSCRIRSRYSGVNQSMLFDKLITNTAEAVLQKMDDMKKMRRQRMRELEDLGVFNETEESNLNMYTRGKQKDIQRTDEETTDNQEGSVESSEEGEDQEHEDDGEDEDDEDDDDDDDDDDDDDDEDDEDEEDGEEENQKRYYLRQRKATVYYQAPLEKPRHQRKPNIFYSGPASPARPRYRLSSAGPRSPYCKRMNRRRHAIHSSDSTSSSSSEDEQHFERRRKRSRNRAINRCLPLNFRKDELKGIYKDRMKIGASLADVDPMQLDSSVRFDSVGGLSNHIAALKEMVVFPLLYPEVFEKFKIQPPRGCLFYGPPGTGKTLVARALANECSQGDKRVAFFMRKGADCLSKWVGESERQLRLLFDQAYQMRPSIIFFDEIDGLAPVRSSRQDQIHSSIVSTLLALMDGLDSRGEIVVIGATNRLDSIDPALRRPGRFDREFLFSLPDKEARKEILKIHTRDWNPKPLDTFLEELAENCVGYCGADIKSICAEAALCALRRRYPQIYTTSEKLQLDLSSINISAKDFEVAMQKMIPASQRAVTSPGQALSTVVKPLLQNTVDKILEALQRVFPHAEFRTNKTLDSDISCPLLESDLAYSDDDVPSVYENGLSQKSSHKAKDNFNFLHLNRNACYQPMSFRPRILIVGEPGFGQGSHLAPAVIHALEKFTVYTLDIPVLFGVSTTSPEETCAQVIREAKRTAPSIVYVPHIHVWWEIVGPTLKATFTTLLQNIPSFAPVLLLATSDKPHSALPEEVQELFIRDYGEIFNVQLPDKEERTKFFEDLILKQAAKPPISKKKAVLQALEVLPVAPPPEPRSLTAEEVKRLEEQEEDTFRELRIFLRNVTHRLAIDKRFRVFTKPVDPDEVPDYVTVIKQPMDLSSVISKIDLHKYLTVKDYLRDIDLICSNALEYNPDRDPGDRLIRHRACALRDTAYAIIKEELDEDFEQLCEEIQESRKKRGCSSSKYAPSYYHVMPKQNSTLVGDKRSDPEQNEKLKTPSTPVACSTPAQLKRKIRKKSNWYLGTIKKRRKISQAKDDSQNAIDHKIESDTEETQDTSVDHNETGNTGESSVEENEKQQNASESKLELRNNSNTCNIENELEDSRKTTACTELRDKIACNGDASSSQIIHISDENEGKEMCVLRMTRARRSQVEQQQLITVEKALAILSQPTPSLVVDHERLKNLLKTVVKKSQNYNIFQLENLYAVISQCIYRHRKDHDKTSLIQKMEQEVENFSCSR

[7] = target: T2, Transcription initiation factor TFIID subunit 1; test: Inhibition of human partial length TAF1 bromodomain 2 (D1521 to D1656 residues) expressed in bacterial expression system by BROMOscan assay
[8] = target: T1, Bromodomain-containing protein 4; test: Inhibition of BRD4 BD1 (unknown origin) by TR-FRET assay
[9] = Lipophilicity, logD of the compound at pH 7.4 by chromatographic method; format: physicochemical; conditions: buffer
[10] = Passive permeability of the compound across artificial membrane by AMP assay; format: ADME; conditions: PAMPA; read-out: permeability

Cc1cc2c(C3=CCOCC3)cnc(NC3CCN(C(=O)C(F)(F)CN)CC3)c2[nH]c1=O
Ki [1]: > 5010 nM
IC50 [2]: 5010 nM
Ki [3]: 794 nM
IC50 [4]: > 10000 nM
IC50 [5]: 39.8 nM
inhibition [6]: 24%
Ki [7]: 0.794 nM
IC50 [8]: > 20000 nM
chromatographic logD [9]: 2.7
Papp [10]: 6.2 ×10⁻⁶ cm/s
